Experimental data taken from paper PMC11671411 (Oncology Research, 2024).

Biological target: T1, PI3KCD (Homo sapiens, UniProt O00329)
T1 construct: gene PIK3CD
Experiment: PI 3-Kinase (human) HTRF enzyme assay with the PI3KCD isoform
Type: biochemical

T1 sequence (O00329 whole entry): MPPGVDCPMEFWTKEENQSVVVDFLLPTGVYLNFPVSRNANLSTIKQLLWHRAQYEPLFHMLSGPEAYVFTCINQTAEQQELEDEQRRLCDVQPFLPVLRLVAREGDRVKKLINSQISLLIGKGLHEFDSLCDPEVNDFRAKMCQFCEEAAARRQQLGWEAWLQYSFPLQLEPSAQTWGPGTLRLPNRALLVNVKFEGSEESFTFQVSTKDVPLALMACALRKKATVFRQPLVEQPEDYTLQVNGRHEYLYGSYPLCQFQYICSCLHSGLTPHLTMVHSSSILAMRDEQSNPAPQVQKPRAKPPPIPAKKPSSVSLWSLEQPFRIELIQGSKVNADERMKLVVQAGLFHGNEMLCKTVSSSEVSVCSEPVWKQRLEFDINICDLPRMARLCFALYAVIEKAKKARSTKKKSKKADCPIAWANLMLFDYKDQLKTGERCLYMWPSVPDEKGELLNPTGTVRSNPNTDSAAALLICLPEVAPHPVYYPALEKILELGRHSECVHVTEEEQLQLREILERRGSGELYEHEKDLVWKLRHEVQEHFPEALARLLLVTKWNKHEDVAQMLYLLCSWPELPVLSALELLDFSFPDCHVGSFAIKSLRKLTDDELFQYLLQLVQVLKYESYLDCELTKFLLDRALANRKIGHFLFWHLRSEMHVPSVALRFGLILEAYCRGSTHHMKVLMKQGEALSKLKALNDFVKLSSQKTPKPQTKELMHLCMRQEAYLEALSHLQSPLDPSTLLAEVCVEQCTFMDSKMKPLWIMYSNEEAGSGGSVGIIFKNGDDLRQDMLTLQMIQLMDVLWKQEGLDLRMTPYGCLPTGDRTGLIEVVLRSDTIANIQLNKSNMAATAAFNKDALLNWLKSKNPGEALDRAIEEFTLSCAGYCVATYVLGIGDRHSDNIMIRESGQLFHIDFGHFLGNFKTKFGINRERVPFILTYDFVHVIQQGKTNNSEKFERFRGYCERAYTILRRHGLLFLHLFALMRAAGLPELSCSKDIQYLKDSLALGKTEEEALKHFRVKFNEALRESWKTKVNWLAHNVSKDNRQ

For `c1ccc2c(c1)c1ccccc1c1nc3c4ccccc4c4ccccc4c3nc21` [SBL-JP-0004, tetrabenzo[a,c,h,j]phenazine], the IC50 was 201 nM.
